From US5994629A, “Positive selection” (priority 1991, dated 1999)
Values after ≈ are worked out from the molar mass of the structure shown. Structures can show the parent of a compound that is named as a salt. Where two headings read alike, the source gives them in different places.

Key:
[1] = biological target: β-glucuronidase from E. coli (Escherichia coli, UniProt P05804); assay: Hydrolysis by β-glucuronidase (GUS), HPLC/TLC; type: biochemical
Method: […] […] This confirms the identity of the product as a conjugate of BA and β-D-glucuronic acid.
[…] The presence of hydrolysis products is then determined using HPLC and TLC.

Solubility = type: physicochemical; conditions: for solubility: organic solvent or mixture
[2] = tested on: leaf discs of tobacco with (GUS+) introduced β-glucuronidase genes; type: cell-based, Nicotiana tabacum 'Wisconsin 38'; conditions: test compounds at several concentrations up to 250 μM in MSO
[3] = tested on: leaf discs of tobacco without (GUS-) introduced β-glucuronidase genes; type: cell-based, Nicotiana tabacum 'Wisconsin 38'; conditions: test compounds at several concentrations up to 250 μM in MSO
[4] = tested on: potato stem segments with control (Kanamycin resistant gene); assay: Selection on D-xylose, potato transformed with control (kanamycin resistant gene); type: cell-based
Method: (§1) Shoots are regenerated from potato stem segments treated with various concentrations of sucrose and D-xylose. The number of shoots are counted after 11 weeks of selection. 105 explants are tested per treatment.

potato stem segments [5] = assay: Carbohydrate sources, potato stem segments, 9 weeks; type: cell-based; conditions: for # of Shoots per explant / activity at 5000 µg/mL / activity at 10000 µg/mL: 9 weeks; for activity at 5000 µg/mL / activity at 10000 µg/mL: Solanum tuberosum
Description: Similar results are observed with potato stem segments after 9 weeks of culturing.

[6] = tested on: sugarbeet cotyledon explants; assay: Effect of D-xylose in sugarbeets with and without light; type: cell-based
Method: Sugarbeet is transformed by the so-called cot-pet method as described in PCT Patent Application No. PCT DK92/00108 wherein cotyledons including the petiole are used as explants. Seedlings are derived from seeds germinated and grown for 4-7 weeks at 12° C. in a 16 h day/8 h night regime. Cotyledons are excised 2-3 mm below the node, tawn apart and cultured either in the dark or in light and in the presence or absence of xylose.

[7] = tested on: potato stem segments with pAH-Xyl; assay: Selection on D-xylose, potato transformed with pAH-Xyl; type: cell-based
Method: as §1

potato stem segments [8] = assay: D-xylose as carbohydrate source during shoot regeneration; type: cell-based
Method: Explants are produced and treated as described above under "selection of transformed tissue", except that the selection/regeneration substrate was not supplemented with kanamycin or cabenicillin, and that plant tissue is not transformed. Thus the only subcultivation step is when the explants are transferred from the co-cultivation substrate to the selection/regeneration substrate which is supplemented with xylose at the concentrations indicated below. The number of regenerated shoots is recorded after 12 weeks.

[9] = tested on: explants transgenic for the mannose 6-phosphate isomerase gene; assay: Shoot regeneration on mannose, sucrose and methyl-3-O-glucose, Man-6-P-isomerase; type: cell-based; conditions: sucrose 10 g/l, no mannose, no methyl 3O-glucose; Transgenic tissue
explants = assay: Inhibition of the toxicity of mannose by methyl-3-O-glucose; type: cell-based; conditions: MOG 0 g/l; mannose 0 g/l; sucrose 10 g/l
Description: Example 25 is repeated except that the selection/regeneration substrate is supplemented with methyl 3-0-glucose (MOG) at the concentrations indicated in Table 25. The percentage of live explants is registered after 8 weeks.

Wild type explants = assay: Shoot regeneration on mannose, sucrose and methyl-3-O-glucose, wild type; type: cell-based; conditions: sucrose 10 g/l, no mannose, no methyl 3O-glucose; Wild type tissue
[10] = tested on: non-transformed potato stem segments; assay: Inhibition by mannose of regeneration of shoots; type: cell-based, Solanum tuberosum; conditions: mannose 0 g/l
Method: This substrate is referred to hereafter as "selection/regeneration substrate". Regenerated plants are produced as described above, except that the shoot segments are not co-cultured with bacteria and the washing procedure consequential thereon is omitted. […] In general, mannose cannot be used as a carbohydrate source in most plant species. When mannose is added to plants it is metabolized and mannose 6-phosphate accumulates. Mannose 6-phosphate can be converted to fructose 6-phosphate by mannose 6-phosphate isomerase, the amount converted being dependent upon the activity of the isomerase. Such fructose 6-phosphate may be utilized by plants, but in principal high levels of mannose (whether or not an alternative carbohydrate source is available) are toxic to plants.

[11] = sucrose 2.5 g/l, D-xylose 2.5 g/l
[12] = sucrose 2.5 g/l, D-xylose 2.5 g/l, 11 weeks, 105 explants
[13] = sucrose 2.5 g/l, D-xylose 5.0 g/l
[14] = sucrose 2.5 g/l, D-xylose 7.5 g/l
[15] = sucrose 5.0 g/l, D-xylose 2.5 g/l
[16] = sucrose 5.0 g/l, D-xylose 5.0 g/l
[17] = sucrose 5.0 g/l, D-xylose 7.5 g/l
[18] = sucrose 10.0 g/l, D-xylose 2.5 g/l
[19] = sucrose 10.0 g/l, D-xylose 5.0 g/l
[20] = sucrose 10.0 g/l, D-xylose 7.5 g/l
[21] = 10 g/l, read-out: Size % of control
[22] = 10 g/l, read-out: explants alive % of control
[23] = D-xylose 10 g/l, sucrose 0 g/l, 2 weeks in dark and 1 week in light
[24] = D-xylose 10 g/l, sucrose 0 g/l, 3 weeks light
[25] = D-xylose 10 g/l, sucrose 10 g/l, 2 weeks in dark and 1 week in light
[26] = D-xylose 10 g/l, sucrose 10 g/l, 3 weeks light
[27] = D-xylose 0 g/l, sucrose 10 g/l, 2 weeks in dark and 1 week in light
[28] = D-xylose 0 g/l, sucrose 10 g/l, 3 weeks light

Chain of β-glucuronidase from E. coli (P05804 whole entry, looked up): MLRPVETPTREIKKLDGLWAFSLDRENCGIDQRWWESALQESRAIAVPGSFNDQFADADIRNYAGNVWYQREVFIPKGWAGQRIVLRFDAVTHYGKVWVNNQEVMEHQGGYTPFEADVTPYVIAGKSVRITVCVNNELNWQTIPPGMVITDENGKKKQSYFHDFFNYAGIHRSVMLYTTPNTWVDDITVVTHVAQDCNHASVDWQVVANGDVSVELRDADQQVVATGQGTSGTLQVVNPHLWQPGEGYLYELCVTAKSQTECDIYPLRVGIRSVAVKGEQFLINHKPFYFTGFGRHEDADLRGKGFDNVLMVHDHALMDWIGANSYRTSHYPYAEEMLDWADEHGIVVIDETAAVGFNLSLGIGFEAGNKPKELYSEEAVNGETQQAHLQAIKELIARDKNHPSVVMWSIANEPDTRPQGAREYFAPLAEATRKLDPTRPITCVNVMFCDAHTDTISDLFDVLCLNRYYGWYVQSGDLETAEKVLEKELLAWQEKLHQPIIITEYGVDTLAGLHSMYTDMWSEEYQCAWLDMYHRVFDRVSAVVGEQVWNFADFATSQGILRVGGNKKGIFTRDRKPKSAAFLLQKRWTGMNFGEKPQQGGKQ

Question: With `O=C(O)C=Cc1ccccc1O[C@@H]1O[C@H](C(=O)O)[C@@H](O)[C@H](O)[C@H]1O` [CouGN, 2-hydroxycinnamyl-β-D-glucopyranuronic acid] as the compound, how does the “conversion to o-coumaric acid by GUS” value ([1]; 5 mg in 1 ml, 1000 units Sigma Type G5897, 12 hours, 37° C., TLC) read?
Answer: 93.4%

Question: What about the solubility (Solubility; aqueous buffer and 50% alcohol, aqueous buffer, pH 7, and 50% aqueous alcohol) of the same compound?
Answer: 5000 µg/mL (≈ 14.7 mM)

Question: Which “Shoot formation, GUS+” value [2] does the source give for `NC(=O)[C@H]1O[C@@H](n2cnc(NCc3ccccc3)c3ncnc2-3)[C@H](O)[C@@H](O)[C@@H]1O` [BA3GNamide, 3-β-D-glucupyranuronamido-6-benzylaminopurine] here?
Answer: + ("+" means shoot formation at concentrations below 250 μM)

Question: And the “Shoot formation, GUS-” value [3]?
Answer: + ("+" means shoot formation at concentrations below 250 μM)

Question: And the solubility (Solubility; 50% aqueous methanol containing 25% acetic acid)?
Answer: 2400 µg/mL (≈ 5.99 mM)

Question: What about the solubility in words (Solubility; water or alcohol) of the same compound?
Answer: only sparingly soluble

Question: For `CC(C)=CCNc1nc(S[C@@H]2O[C@H](C(=O)O)[C@@H](O)[C@H](O)[C@H]2O)nc2[nH]cnc12` [IP2SGN sodium salt, 6-(3-methyl-but-2-enylamino)purine-2-yl-1-thio-β-D-glucopyranuronic acid, sodium salt], which “partial removal of the glucuronide by GUS” value ([1]; 2500 Fishman units, 48 hours, 37° C., HPLC) is on record?
Answer: 65%

Question: And the “Shoot formation, GUS+” value [2]?
Answer: + ("+" means shoot formation at concentrations below 250 μM)

Question: What about the “Shoot formation, GUS-” value [3] of the same compound?
Answer: + ("+" means shoot formation at concentrations below 250 μM)

Question: And the solubility in words (Solubility; 50% aqueous alcohol)?
Answer: sparingly soluble

Question: What does the source list for `O=C[C@H](O)[C@@H](O)[C@H](O)CO` [D-xylose]?
Answer: GUS+ Shoots [4, 11]: 0; GUS+ Shoots/explants [4, 11]: 0; No. Shoots [4, 12]: 0; GUS+ Shoots [4, 13]: 0; GUS+ Shoots/explants [4, 13]: 0; No. Shoots [4, 13]: 0; GUS+ Shoots [4, 14]: 0; GUS+ Shoots/explants [4, 14]: 0; No. Shoots [4, 14]: 0; GUS+ Shoots [4, 15]: 0; GUS+ Shoots/explants [4, 15]: 0; No. Shoots [4, 15]: 0; GUS+ Shoots [4, 16]: 0; GUS+ Shoots/explants [4, 16]: 0; No. Shoots [4, 16]: 0; GUS+ Shoots [4, 17]: 0; GUS+ Shoots/explants [4, 17]: 0; No. Shoots [4, 17]: 0; GUS+ Shoots [4, 18]: 0; GUS+ Shoots/explants [4, 18]: 0; GUS+ shoots/no. Shoots (%) [4, 18]: 0%; No. Shoots [4, 18]: 32; GUS+ Shoots [4, 19]: 0; GUS+ shoots/no. Shoots (%) [4, 19]: 0%; No. Shoots [4, 19]: 5; GUS+ Shoots [4, 20]: 0; GUS+ Shoots/explants [4, 20]: 0; GUS+ shoots/no. Shoots (%) [4, 20]: 0%; No. Shoots [4, 20]: 2; # of Shoots per explant (potato stem segments [5]; 5 g/l): 0; # of Shoots per explant (potato stem segments [5]; 10 g/l): 0; activity at 5000 µg/mL (potato stem segments [5]; 5 g/l, read-out: Size % of control): 17%; activity at 5000 µg/mL (potato stem segments [5]; 5 g/l, read-out: explants alive % of control): 0%; activity at 10000 µg/mL (potato stem segments [5]; [21]): 13%; activity at 10000 µg/mL (potato stem segments [5]; [22]): 0%; effect on shoot regeneration, in words (potato stem segments [5]; potato stem segments when sucrose is present): inhibitor of shoot regeneration; % expl. with shoots [6, 23]: 13%; Green (%) [6, 23]: 77%; weight (wet) [6, 23]: 0.37 g; % expl. with shoots [6, 24]: 90%; Green (%) [6, 24]: 90%; weight (wet) [6, 24]: 1.53 g; % expl. with shoots [6, 25]: 80%; Green (%) [6, 25]: 97%; weight (wet) [6, 25]: 0.89 g; % expl. with shoots [6, 26]: 97%; Green (%) [6, 26]: 100%; weight (wet) [6, 26]: 5.47 g; GUS+ Shoots [7, 11]: 0; GUS+ Shoots/explants [7, 11]: 0; No. Shoots [7, 12]: 0; GUS+ Shoots [7, 13]: 0; GUS+ Shoots/explants [7, 13]: 0; No. Shoots [7, 13]: 0; GUS+ Shoots [7, 14]: 0; GUS+ Shoots/explants [7, 14]: 0; No. Shoots [7, 14]: 0; GUS+ Shoots [7, 15]: 0; GUS+ Shoots/explants [7, 15]: 0; No. Shoots [7, 15]: 0; GUS+ Shoots [7, 16]: 0; GUS+ Shoots/explants [7, 16]: 0; No. Shoots [7, 16]: 0; GUS+ Shoots [7, 17]: 0; GUS+ Shoots/explants [7, 17]: 0; No. Shoots [7, 17]: 0; GUS+ Shoots [7, 18]: 5; GUS+ Shoots/explants [7, 18]: 0.05; GUS+ shoots/no. Shoots (%) [7, 18]: 6%; No. Shoots [7, 18]: 84; GUS+ Shoots [7, 19]: 0; GUS+ Shoots/explants [7, 19]: 0; GUS+ shoots/no. Shoots (%) [7, 19]: 0%; No. Shoots [7, 19]: 20; GUS+ Shoots [7, 20]: 4; GUS+ Shoots/explants [7, 20]: 0.04; GUS+ shoots/no. Shoots (%) [7, 20]: 57.1%; No. Shoots [7, 20]: 7; inhibition of shoot regeneration, in words (potato stem segments [8]; when sucrose is present, compared to D-mannose): weak inhibitor of shoot regeneration; Number of regenerated shoots each stem segment (potato stem segments [8]; xylose 5 g/l, sucrose 0 g/l, 12 weeks): 0; Number of regenerated shoots each stem segment (potato stem segments [8]; xylose 5 g/l, sucrose 10 g/l): 3; Number of regenerated shoots each stem segment (potato stem segments [8]; xylose 10 g/l, sucrose 0 g/l): 0; Number of regenerated shoots each stem segment (potato stem segments [8]; xylose 10 g/l, sucrose 10 g/l): 0; Number of regenerated shoots each stem segment (potato stem segments [8]; xylose 20 g/l, sucrose 0 g/l): 0; Number of regenerated shoots each stem segment (potato stem segments [8]; xylose 20 g/l, sucrose 10 g/l): 0

Question: With `C/C(=C\CNc1ncnc2[nH]cnc12)CO[C@@H]1O[C@H](C(=O)O)[C@@H](O)[C@H](O)[C@H]1O` [ZOGN sodium salt, O-β-D-glucopyranuronosylzeatin, sodium salt] as the compound, how does the “Hydrolysis by β-glucuronidase (GUS), result in words” value ([1]; 50 mM sodium phosphate buffer pH 7.0, 37° C., HPLC/TLC) read?
Answer: virtually complete conversion to trans zeatin

Question: What about the “Shoot formation, GUS+” value [2] of the same compound?
Answer: + ("+" means shoot formation at concentrations below 250 μM)

Question: And the “Shoot formation, GUS-” value [3]?
Answer: + ("+" means shoot formation at concentrations below 250 μM)

Question: What does the source list for `OC[C@H]1O[C@@](CO)(O[C@H]2O[C@H](CO)[C@@H](O)[C@H](O)[C@H]2O)[C@@H](O)[C@@H]1O` [sucrose]?
Answer: Regeneration of shoots [9]: 1.4 shoots/explant; percentage of live explants (explants): 100; Regeneration of shoots (Wild type explants): 1.7 shoots/explant; # of Shoots per explant (potato stem segments [5]; 10 g/l): 2.8; activity at 10000 µg/mL (potato stem segments [5]; [21]): 100%; activity at 10000 µg/mL (potato stem segments [5]; [22]): 100%; Regenerated shoots/explant (%) ([10]; sucrose 10 g/l): 50%; Regenerated shoots/explant (%) ([10]; sucrose 20 g/l): 53%; % expl. with shoots [6, 27]: 50%; Green (%) [6, 27]: 97%; weight (wet) [6, 27]: 1.38 g; % expl. with shoots [6, 28]: 98%; Green (%) [6, 28]: 100%; weight (wet) [6, 28]: 7.41 g; Number of regenerated shoots each stem segment (potato stem segments [8]; xylose 0 g/l, sucrose 10 g/l): 6
